The text below walks through data of patent publication US7875297B2, “Method for treating menorrhagia” (Ablation Products LLC, priority 2003, dated 2011).

Structures are written as SMILES.

This assay relates to beef muscle tissue (fillet mignon). The assay can be described thus: Tissue necrosis with AgNO3 bearing beads placed on the surface of beef muscle tissue. From the text: The degree of necrosis was rated as follows: slight visible pitting of the tissue surface (+); moderate pitting of tissue surface with slight blackening of the tissue (++); significant pitting with moderate blackening of the tissue (+++); severe pitting with complete blackening of the tissue ([…]+); and severe pitting with complete blackening of the tissue, spreading beyond the point of contact (+++++).

Consider `O=[N+]([O-])[O-].[Ag+]` [AgNO3 Crystal, silver nitrate], for which the “Tissue Necrosis (degree of necrosis of the tissue under each bead)” value (“Tissue Necrosis” below) (Time 5 minutes) is on record as “+ + +”, the “Tissue Necrosis” value (Time 10 minutes) is recorded as “+ + + +” and the “Tissue Necrosis” value (Time 15 minutes) was “+ + + + +”.
